In PubChem BioAssay (NCI):
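48-hour exposure; five concentrations; linearly interpolated endpoints. GI50 marks 50% less growth. The concentration for full growth arrest is given as TGI.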

Tests used:
Test in all cases: inhibition of tumour cell growth, NCI panel, 48 h
T-47D breast = system: T-47D breast
HT29 colon = system: HT29 colon
NCI/ADR-RES ovarian = system: NCI/ADR-RES ovarian
HOP-62 NSCLC = system: HOP-62 NSCLC
OVCAR-4 ovarian = system: OVCAR-4 ovarian
NCI-H226 lung = system: NCI-H226 lung
DU-145 prostate = system: DU-145 prostate
SF-295 CNS = system: SF-295 CNS
MOLT-4 leukemia = system: MOLT-4 leukemia
HL-60(TB) leukemia = system: HL-60(TB) leukemia
HCT-116 colon = system: HCT-116 colon
SK-OV-3 ovarian = system: SK-OV-3 ovarian
SNB-75 CNS = system: SNB-75 CNS
RXF 393 renal = system: RXF 393 renal
PC-3 prostate = system: PC-3 prostate
U251 CNS = system: U251 CNS
UACC-257 melanoma = system: UACC-257 melanoma
MCF7 breast = system: MCF7 breast
SR leukemia = system: SR leukemia
K-562 leukemia = system: K-562 leukemia
OVCAR-8 ovarian = system: OVCAR-8 ovarian
MDA-MB-435 = system: MDA-MB-435
786-0 renal = system: 786-0 renal
NCI-H460 lung = system: NCI-H460 lung
UO-31 renal = system: UO-31 renal
SK-MEL-5 melanoma = system: SK-MEL-5 melanoma
TK-10 renal = system: TK-10 renal
COLO 205 colon = system: COLO 205 colon
A549 NSCLC = system: A549 NSCLC
MALME-3M melanoma = system: MALME-3M melanoma
HOP-92 NSCLC = system: HOP-92 NSCLC
NCI-H23 lung = system: NCI-H23 lung
SF-539 CNS = system: SF-539 CNS
SW-620 colon = system: SW-620 colon
OVCAR-3 ovarian = system: OVCAR-3 ovarian
SK-MEL-2 melanoma = system: SK-MEL-2 melanoma
KM12 colon = system: KM12 colon
IGROV1 ovarian = system: IGROV1 ovarian
OVCAR-5 ovarian = system: OVCAR-5 ovarian
UACC-62 melanoma = system: UACC-62 melanoma
HCT-15 colon = system: HCT-15 colon
MDA-MB-231 breast = system: MDA-MB-231 breast
HS 578T breast = system: HS 578T breast
SN12C renal = system: SN12C renal
SK-MEL-28 melanoma = system: SK-MEL-28 melanoma
NCI-H522 lung = system: NCI-H522 lung
SNB-19 CNS = system: SNB-19 CNS
ACHN renal = system: ACHN renal
SF-268 CNS = system: SF-268 CNS
CAKI-1 renal = system: CAKI-1 renal
M14 melanoma = system: M14 melanoma
HCC-2998 colon = system: HCC-2998 colon
A498 renal = system: A498 renal
RPMI-8226 leukemia = system: RPMI-8226 leukemia
EKVX NSCLC = system: EKVX NSCLC
LOX IMVI melanoma = system: LOX IMVI melanoma

With O=C(Nc1ccc(N=C=S)cc1Cl)c1cc(Br)cc(Br)c1O the TGI (T-47D breast) was > 100 µM, the TGI (HT29 colon) was 38 µM and the TGI (NCI/ADR-RES ovarian) was 58 µM. The TGI (HOP-62 NSCLC) was 84.4 µM, the TGI (OVCAR-4 ovarian) was > 100 µM and the TGI (NCI-H226 lung) was 41.5 µM. The TGI (DU-145 prostate) was 39.4 µM, the TGI (SF-295 CNS) was > 100 µM and the TGI (MOLT-4 leukemia) was 69.4 µM. For the same molecule, the TGI (HL-60(TB) leukemia) was > 100 µM, the TGI (HCT-116 colon) was 31.7 µM and the TGI (SK-OV-3 ovarian) was > 100 µM. For the same molecule, the TGI (SNB-75 CNS) was > 100 µM, the TGI (RXF 393 renal) was > 100 µM and the TGI (PC-3 prostate) was 54.5 µM. For the same molecule, the TGI (U251 CNS) was 53.1 µM, the TGI (UACC-257 melanoma) was 48.9 µM and the TGI (MCF7 breast) was > 100 µM. For the same molecule, the TGI (SR leukemia) was 62 µM, the TGI (K-562 leukemia) was 97.1 µM and the TGI (OVCAR-8 ovarian) was 46.6 µM. For the same molecule, the TGI (MDA-MB-435) was 71.4 µM, the TGI (786-0 renal) was 75.2 µM and the TGI (NCI-H460 lung) was > 100 µM. The TGI (UO-31 renal) was > 100 µM, the TGI (SK-MEL-5 melanoma) was 46.5 µM and the TGI (TK-10 renal) was 69.5 µM. The TGI (COLO 205 colon) was > 100 µM, the TGI (A549 NSCLC) was 69.7 µM and the TGI (MALME-3M melanoma) was > 100 µM. The TGI (HOP-92 NSCLC) was 56 µM, the TGI (NCI-H23 lung) was 55.2 µM and the TGI (SF-539 CNS) was 54.6 µM. For the same molecule, the TGI (SW-620 colon) was 72.3 µM, the TGI (OVCAR-3 ovarian) was > 100 µM and the TGI (SK-MEL-2 melanoma) was > 100 µM. It also gave a TGI (KM12 colon) of 55.3 µM, a TGI (IGROV1 ovarian) of 39.8 µM and a TGI (OVCAR-5 ovarian) of 50.9 µM. It also gave a TGI (UACC-62 melanoma) of 35.2 µM, a TGI (HCT-15 colon) of 31.3 µM and a TGI (MDA-MB-231 breast) of 46.2 µM. For the same molecule, the TGI (HS 578T breast) was 69.4 µM, the TGI (SN12C renal) was 24.1 µM and the TGI (SK-MEL-28 melanoma) was > 100 µM. The TGI (NCI-H522 lung) was > 100 µM, the TGI (SNB-19 CNS) was 64.3 µM and the TGI (ACHN renal) was 83.8 µM. The TGI (SF-268 CNS) was > 100 µM, the TGI (CAKI-1 renal) was > 100 µM and the TGI (M14 melanoma) was > 100 µM.

With Nc1ncnc2c1N=C(c1ccc3c(c1)OCO3)CC(c1ccc(Cl)cc1)N2 (centres undefined) the GI50 (T-47D breast) was 20.9 µM, the TGI (T-47D breast) was > 100 µM and the GI50 (HT29 colon) was 17.2 µM. For the same molecule, the TGI (HT29 colon) was > 100 µM, the GI50 (NCI/ADR-RES ovarian) was 5.35 µM and the TGI (NCI/ADR-RES ovarian) was 41.2 µM. For the same molecule, the GI50 (HOP-62 NSCLC) was 16.6 µM, the TGI (HOP-62 NSCLC) was 42.6 µM and the GI50 (OVCAR-4 ovarian) was 4.58 µM. For the same molecule, the TGI (OVCAR-4 ovarian) was 35.2 µM, the GI50 (NCI-H226 lung) was 44.8 µM and the TGI (NCI-H226 lung) was > 100 µM. For the same molecule, the GI50 (DU-145 prostate) was 16.8 µM, the TGI (DU-145 prostate) was 33.3 µM and the GI50 (SF-295 CNS) was 14.7 µM. The TGI (SF-295 CNS) was > 100 µM, the GI50 (MOLT-4 leukemia) was 5.85 µM and the TGI (MOLT-4 leukemia) was > 100 µM. The GI50 (HCC-2998 colon) was 5.88 µM, the TGI (HCC-2998 colon) was 35 µM and the GI50 (HL-60(TB) leukemia) was 5.38 µM. The TGI (HL-60(TB) leukemia) was > 100 µM, the GI50 (HCT-116 colon) was 10.7 µM and the TGI (HCT-116 colon) was 22.5 µM. The GI50 (SK-OV-3 ovarian) was 92.6 µM, the TGI (SK-OV-3 ovarian) was > 100 µM and the GI50 (SNB-75 CNS) was 5.22 µM. For the same molecule, the TGI (SNB-75 CNS) was 38.3 µM, the GI50 (RXF 393 renal) was 2.51 µM and the TGI (RXF 393 renal) was 13.5 µM. For the same molecule, the GI50 (PC-3 prostate) was 9.06 µM, the TGI (PC-3 prostate) was 22.1 µM and the GI50 (A498 renal) was 5.93 µM. For the same molecule, the TGI (A498 renal) was > 100 µM, the GI50 (U251 CNS) was 6.19 µM and the TGI (U251 CNS) was 25.8 µM. For the same molecule, the GI50 (UACC-257 melanoma) was > 100 µM, the TGI (UACC-257 melanoma) was > 100 µM and the GI50 (MCF7 breast) was 3.61 µM. The TGI (MCF7 breast) was 45.5 µM, the GI50 (SR leukemia) was > 100 µM and the TGI (SR leukemia) was > 100 µM. For the same molecule, the GI50 (K-562 leukemia) was 4.27 µM, the TGI (K-562 leukemia) was > 100 µM and the GI50 (RPMI-8226 leukemia) was 1.5 µM. It also gave a TGI (RPMI-8226 leukemia) of 8.33 µM, a GI50 (OVCAR-8 ovarian) of 4.66 µM and a TGI (OVCAR-8 ovarian) of 25.1 µM. For the same molecule, the GI50 (MDA-MB-435) was 56.3 µM, the TGI (MDA-MB-435) was > 100 µM and the GI50 (786-0 renal) was 21.7 µM. The TGI (786-0 renal) was > 100 µM, the GI50 (NCI-H460 lung) was 21.8 µM and the TGI (NCI-H460 lung) was > 100 µM. For the same molecule, the GI50 (UO-31 renal) was 7.47 µM, the TGI (UO-31 renal) was > 100 µM and the GI50 (SK-MEL-5 melanoma) was 85.1 µM. For the same molecule, the TGI (SK-MEL-5 melanoma) was > 100 µM, the GI50 (TK-10 renal) was 8.22 µM and the TGI (TK-10 renal) was 38.9 µM. The GI50 (COLO 205 colon) was 15 µM, the TGI (COLO 205 colon) was > 100 µM and the GI50 (A549 NSCLC) was 11.6 µM. For the same molecule, the TGI (A549 NSCLC) was 30.1 µM, the GI50 (MALME-3M melanoma) was 89.1 µM and the TGI (MALME-3M melanoma) was > 100 µM. The GI50 (NCI-H23 lung) was 21.4 µM, the TGI (NCI-H23 lung) was > 100 µM and the GI50 (SF-539 CNS) was 26.2 µM. For the same molecule, the TGI (SF-539 CNS) was > 100 µM, the GI50 (SW-620 colon) was 4.91 µM and the TGI (SW-620 colon) was > 100 µM. It also gave a GI50 (OVCAR-3 ovarian) of 3.71 µM, a TGI (OVCAR-3 ovarian) of 18.6 µM and a GI50 (EKVX NSCLC) of 40.6 µM. The TGI (EKVX NSCLC) was > 100 µM, the GI50 (KM12 colon) was 2.03 µM and the TGI (KM12 colon) was 30.7 µM. For the same molecule, the GI50 (IGROV1 ovarian) was 0.351 µM, the TGI (IGROV1 ovarian) was 3.76 µM and the GI50 (OVCAR-5 ovarian) was 18.3 µM. For the same molecule, the TGI (OVCAR-5 ovarian) was 90.7 µM, the GI50 (UACC-62 melanoma) was 72.1 µM and the TGI (UACC-62 melanoma) was > 100 µM. The GI50 (HCT-15 colon) was 3.05 µM, the TGI (HCT-15 colon) was > 100 µM and the GI50 (MDA-MB-231 breast) was 27 µM. For the same molecule, the TGI (MDA-MB-231 breast) was > 100 µM, the GI50 (HS 578T breast) was 1.07 µM and the TGI (HS 578T breast) was 7.09 µM. The GI50 (SN12C renal) was 80.4 µM, the TGI (SN12C renal) was > 100 µM and the GI50 (SK-MEL-28 melanoma) was 30.4 µM. For the same molecule, the TGI (SK-MEL-28 melanoma) was > 100 µM, the GI50 (NCI-H522 lung) was 2.37 µM and the TGI (NCI-H522 lung) was > 100 µM. For the same molecule, the GI50 (SNB-19 CNS) was > 100 µM, the TGI (SNB-19 CNS) was > 100 µM and the GI50 (ACHN renal) was 8.25 µM. The TGI (ACHN renal) was > 100 µM, the GI50 (SF-268 CNS) was 8.52 µM and the TGI (SF-268 CNS) was 45.9 µM. The GI50 (CAKI-1 renal) was 22.7 µM, the TGI (CAKI-1 renal) was 86.3 µM and the GI50 (LOX IMVI melanoma) was 10.1 µM. For the same molecule, the TGI (LOX IMVI melanoma) was 33 µM, the GI50 (M14 melanoma) was 25.5 µM and the TGI (M14 melanoma) was > 100 µM.
